# Legend:
# THP-1 monocytes = test: Tissue factor up-regulation in THP-1 monocytes by misfolded proteins; type: cell-based; settings: 40 μg/ml glycated hemoglobin or 10 μg/ml amyloid-β(1-40); controls freshly dissolved
# Procedure: For tissue factor expression analysis purposes, THP-1 cells were cultured in IMDM without gentamycin and streptomycin. At day 0, one ml of cells was seeded at 1×10^6 cells/ml in the wells of six-well culture plates. At day 1, […] PBS or with cross-beta structure binding compounds ThT, Congo red, tPA and IgIV, as described above, at a cell density of 1.8×10^7/ml (regular culturing conditions). Negative control was buffer. After six hours, the cells were pelleted by centrifugation and resuspended in 100 μl TBS (50 mM Tris-HCl, 150 mM NaCl, pH 7.0-7.3). Next, the cells were frozen and thawed for four subsequent cycles. Cells were centrifuged for ten minutes at 16,000*g and the supernatant was used for analysis of tissue factor (TF) expression. First, protein concentrations were determined using an established protein concentration assay (Bicinchoninic Acid (BCA) Protein Assay). Protein concentrations were equalized between samples with TBS to correct for variations in cell density. […] Conversion of the substrate by activated factor X at 37° C. was recorded in time for 100 minutes, by absorbance readings at 405 nm. As an additional control, factor X activity was assessed with S. aureus cells only, omitting the monocytes. […]
# [1] = target: glycated hemoglobin (Hb-AGE) (Homo sapiens, UniProt P68871+P69905); test: ELISA capture of glycated hemoglobin from solution by immobilized finger domains; type: binding; settings: immobilized finger domain; not control hemoglobin
# glycated hemoglobin (Hb-AGE), sequence (P69905 whole entry, the tested form may be a part): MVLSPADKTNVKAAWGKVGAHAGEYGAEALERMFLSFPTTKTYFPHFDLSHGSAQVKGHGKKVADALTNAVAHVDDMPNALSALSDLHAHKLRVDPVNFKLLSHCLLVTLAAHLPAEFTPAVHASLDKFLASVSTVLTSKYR
# glycated hemoglobin (Hb-AGE), sequence (P68871 whole entry, the tested form may be a part): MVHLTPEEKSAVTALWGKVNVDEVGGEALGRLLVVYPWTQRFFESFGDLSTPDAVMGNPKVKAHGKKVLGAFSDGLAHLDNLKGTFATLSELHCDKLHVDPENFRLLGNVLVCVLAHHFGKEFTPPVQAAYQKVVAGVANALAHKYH
substance,measurement,setting,value
amyloid-β: amyloid-β(1-40) with cross-beta structure conformation,TF expression in THP-1 monocytes (factor X activation by lysates),THP-1 monocytes,induce elevated levels of TF
"fibronectin F4-5 with a His-tag: recombinant fibronectin type I domains 4-5, N-terminally tagged to growth hormone and His6-tag, C-terminal His6-tag",capture of glycated hemoglobin in solution,[1],specifically capture

# From US20060292683A1, “Cross-beta structures on microbial organisms” (Crossbeta Biosciences B.V., priority 2005, published 2006)
